Experimental data as given in patent publication US20240199587A1, “HETEROCYCLIC COMPOUNDS” (Hoffmann-La Roche Inc., priority 2021, published 2024).

Biological target: T1, MAGL (Homo sapiens, UniProt Q99685)
T1 sequence (Q99685 1-303): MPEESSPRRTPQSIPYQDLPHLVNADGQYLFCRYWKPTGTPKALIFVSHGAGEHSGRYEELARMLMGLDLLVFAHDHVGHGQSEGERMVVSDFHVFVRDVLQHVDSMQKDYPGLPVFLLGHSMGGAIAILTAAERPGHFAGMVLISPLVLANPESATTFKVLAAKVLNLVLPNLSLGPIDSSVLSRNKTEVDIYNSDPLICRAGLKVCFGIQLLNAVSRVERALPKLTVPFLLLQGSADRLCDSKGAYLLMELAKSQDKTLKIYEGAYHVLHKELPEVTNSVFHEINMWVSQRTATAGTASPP
Experiment: 2-AG assay (MAGL inhibitory activity, hydrolysis of 2-arachidonoylglycerol to arachidonic acid followed by mass spectrometry)
Format: biochemical
Settings: 8 μM 2-arachidonoylglycerol, 15 min pre-incubation, 30 min incubation at RT, RapidFire MS readout
Method in brief: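 Arachidonic acid released from 8 μM 2-arachidonoylglycerol was quantified by online SPE triple-quadrupole MS (negative ESI, 303.1→259.1), normalised to d8-arachidonic acid internal standard. Reaction ran 30 min at RT after 15 min RT compound pre-incubation with […] MAGL in TRIS/EDTA/Tween-20 buffer, 2.5% DMSO.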

Row | IC50 [nM] | Structure (SMILES)
1 | 3.5 | O=C(N1C[C@H]2C[C@H](Oc3ccc(C(F)(F)F)c(F)c3)C[C@H]2C1)N1CC2(CC(n3cnc(C4CC4)n3)C2)C1 [Example 117, [6-(3-cyclopropyl-1,2,4-triazol-1-yl)-2-azaspiro[3.3]heptan-2-yl]-[rac-(3aS,6aR)-5-[3-fluoro-4-(trifluoromethyl)phenoxy]-3,3a,4,5,6,6a-hexahydro-1H-cyclopenta[c]pyrrol-2-yl]methanone]
2 | 4.7 | N#Cc1cc(O[C@H]2C[C@@H]3CN(C(=O)N4CC5(CC(n6cnc(C7CC7)n6)C5)C4)C[C@@H]3C2)ccc1C(F)(F)F [Example 118, 5-[rac-(3aS,6aR)-2-[6-(3-cyclopropyl-1,2,4-triazol-1-yl)-2-azaspiro[3.3]heptane-2-carbonyl]-3,3a,4,5,6,6a-hexahydro-1H-cyclopenta[c]pyrrol-5-yl]oxy]-2-(trifluoromethyl) benzonitrile]
3 | 7.4 | O=C(N1C[C@H]2C[C@H](Oc3ccc(F)c(F)c3)C[C@H]2C1)N1CC2(CC(n3cnc(C4CC4)n3)C2)C1 [Example 119, [6-(3-cyclopropyl-1,2,4-triazol-1-yl)-2-azaspiro[3.3]heptan-2-yl]-[rac-(3aS,6aR)-5-(3,4-difluorophenoxy)-3,3a,4,5,6,6a-hexahydro-1H-cyclopenta[c]pyrrol-2-yl]methanone]
4 | 1 | O=C(N1C[C@H]2C[C@H](Oc3ccc(F)c(C(F)(F)F)c3)C[C@H]2C1)N1CC2(CC(n3cnc(C4CC4)n3)C2)C1 [Example 120, [6-(3-cyclopropyl-1,2,4-triazol-1-yl)-2-azaspiro[3.3]heptan-2-yl]-[rac-(3aS,6aR)-5-[4-fluoro-3-(trifluoromethyl)phenoxy]-3,3a,4,5,6,6a-hexahydro-1H-cyclopenta[c]pyrrol-2-yl]methanone]
5 | 5.4 | O=C(N1C[C@H]2C[C@H](Oc3ccc(F)cc3F)C[C@H]2C1)N1CC2(CC(n3cnc(C4CC4)n3)C2)C1 [Example 121, [6-(3-cyclopropyl-1,2,4-triazol-1-yl)-2-azaspiro[3.3]heptan-2-yl]-[rac-(3aS,6aR)-5-(2,4-difluorophenoxy)-3,3a,4,5,6,6a-hexahydro-1H-cyclopenta[c]pyrrol-2-yl]methanone]
6 | 7.3 | COc1cc(F)ccc1O[C@H]1C[C@@H]2CN(C(=O)N3CC4(CC(n5cnc(C6CC6)n5)C4)C3)C[C@@H]2C1 [Example 122, [6-(3-cyclopropyl-1,2,4-triazol-1-yl)-2-azaspiro[3.3]heptan-2-yl]-[rac-(3aS,6aR)-5-(4-fluoro-2-methoxy-phenoxy)-3,3a,4,5,6,6a-hexahydro-1H-cyclopenta[c]pyrrol-2-yl]methanone]
7 | 41.9 | CS(=O)(=O)c1cc(F)ccc1O[C@H]1C[C@@H]2CN(C(=O)N3CC4(CC(n5cnc(C6CC6)n5)C4)C3)C[C@@H]2C1 [Example 123, [6-(3-cyclopropyl-1,2,4-triazol-1-yl)-2-azaspiro[3.3]heptan-2-yl]-[rac-(3aS,6aR)-5-(4-fluoro-2-methylsulfonyl-phenoxy)-3,3a,4,5,6,6a-hexahydro-1H-cyclopenta[c]pyrrol-2-yl]methanone]
8 | 4 | O=C(N1C[C@H]2C[C@H](Oc3c(F)cc(F)cc3F)C[C@H]2C1)N1CC2(CC(n3cnc(C4CC4)n3)C2)C1 [Example 124, [6-(3-cyclopropyl-1,2,4-triazol-1-yl)-2-azaspiro[3.3]heptan-2-yl]-[rac-(3aS,6aR)-5-(2,4,6-trifluorophenoxy)-3,3a,4,5,6,6a-hexahydro-1H-cyclopenta[c]pyrrol-2-yl]methanone]
9 | 4.6 | Cc1cc(O[C@H]2C[C@@H]3CN(C(=O)N4CC5(CC(n6cnc(C7CC7)n6)C5)C4)C[C@@H]3C2)ccc1F [Example 125, [6-(3-cyclopropyl-1,2,4-triazol-1-yl)-2-azaspiro[3.3]heptan-2-yl]-[rac-(3aS,6aR)-5-(4-fluoro-3-methyl-phenoxy)-3,3a,4,5,6,6a-hexahydro-1H-cyclopenta[c]pyrrol-2-yl]methanone]
10 | 14.4 | N#Cc1cc(O[C@H]2C[C@@H]3CN(C(=O)N4CC5(CC(n6cnc(C7CC7)n6)C5)C4)C[C@@H]3C2)ccc1F [Example 127, 2-fluoro-5-[[rac-(3aS,6aR)-2-[6-(3-cyclopropyl-1,2,4-triazol-1-yl)-2-azaspiro[3.3]heptane-2-carbonyl]-3,3a,4,5,6,6a-hexahydro-1H-cyclopenta[c]pyrrol-5-yl]oxy]benzonitrile]
11 | 1.8 | Cc1cc(F)c(F)cc1O[C@H]1C[C@@H]2CN(C(=O)N3CC4(CC(n5cnc(C6CC6)n5)C4)C3)C[C@@H]2C1 [Example 128, [6-(3-cyclopropyl-1,2,4-triazol-1-yl)-2-azaspiro[3.3]heptan-2-yl]-[rac-(3aS,6aR)-5-(4,5-difluoro-2-methyl-phenoxy)-3,3a,4,5,6,6a-hexahydro-1H-cyclopenta[c]pyrrol-2-yl]methanone]
12 | 72.2 | N#Cc1cc(F)ccc1O[C@H]1C[C@@H]2CN(C(=O)N3CC4(CC(n5cnc(C6CC6)n5)C4)C3)C[C@@H]2C1 [Example 129, 5-fluoro-2-[[rac-(3aS,6aR)-2-[6-(3-cyclopropyl-1,2,4-triazol-1-yl)-2-azaspiro[3.3]heptane-2-carbonyl]-3,3a,4,5,6,6a-hexahydro-1H-cyclopenta[c]pyrrol-5-yl]oxy]benzonitrile]
13 | 47.6 | CS(=O)(=O)c1cc(O[C@H]2C[C@@H]3CN(C(=O)N4CC5(CC(n6cnc(C7CC7)n6)C5)C4)C[C@@H]3C2)ccc1F [Example 130, [6-(3-cyclopropyl-1,2,4-triazol-1-yl)-2-azaspiro[3.3]heptan-2-yl]-[rac-(3aS,6aR)-5-(4-fluoro-3-methylsulfonyl-phenoxy)-3,3a,4,5,6,6a-hexahydro-1H-cyclopenta[c]pyrrol-2-yl]methanone]
14 | 5.9 | COc1cc(O[C@H]2C[C@@H]3CN(C(=O)N4CC5(CC(n6cnc(C7CC7)n6)C5)C4)C[C@@H]3C2)ccc1F [Example 131, [6-(3-cyclopropyl-1,2,4-triazol-1-yl)-2-azaspiro[3.3]heptan-2-yl]-[rac-(3aS,6aR)-5-(4-fluoro-3-methoxy-phenoxy)-3,3a,4,5,6,6a-hexahydro-1H-cyclopenta[c]pyrrol-2-yl]methanone]
15 | 1.7 | O=C(N1C[C@H]2C[C@H](Oc3cc(C(F)(F)F)c(F)cc3F)C[C@H]2C1)N1CC2(CC(n3cnc(C4CC4)n3)C2)C1 [Example 132, [6-(3-cyclopropyl-1,2,4-triazol-1-yl)-2-azaspiro[3.3]heptan-2-yl]-[rac-(3aS,6aR)-5-[2,4-difluoro-5-(trifluoromethyl)phenoxy]-3,3a,4,5,6,6a-hexahydro-1H-cyclopenta[c]pyrrol-2-yl]methanone]
16 | 1.3 | O=C(N1C[C@H]2C[C@H](Oc3ccc(F)c(OC(F)(F)F)c3)C[C@H]2C1)N1CC2(CC(n3cnc(C4CC4)n3)C2)C1 [Example 133, [6-(3-cyclopropyl-1,2,4-triazol-1-yl)-2-azaspiro[3.3]heptan-2-yl]-[rac-(3aS,6aR)-5-[4-fluoro-3-(trifluoromethoxy)phenoxy]-3,3a,4,5,6,6a-hexahydro-1H-cyclopenta[c]pyrrol-2-yl]methanone]
